We go through 7 compounds from PubChem BioAssay (NCI).

Common to all, as to test: NCI-60 cell line screen, 48 h
The test system of assay [1] is A549 NSCLC.
In assay [2] the test system is EKVX NSCLC.
Assay [3] deals with HCC-2998 colon.
The test system of assay [4] is HCT-116 colon.
The subject of assay [5] is HL-60(TB) leukemia.
For assay [6], the system named is HT29 colon.
Assay [7] concerns IGROV1 ovarian.
Assay [8] relates to KM12 colon.
Assay [9] deals with MCF7 breast.
In assay [10] the test system is MDA-N.
Assay [11] concerns OVCAR-3 ovarian.
Assay [12] has as its system OVCAR-5 ovarian.
The test system of assay [13] is OVCAR-8 ovarian.
For assay [14], the system named is RPMI-8226 leukemia.
The subject of assay [15] is SF-539 CNS.
Assay [16] concerns SK-MEL-2 melanoma.
Assay [17] concerns SNB-19 CNS.
In assay [18] the test system is SR leukemia.
For assay [19], the system named is UO-31 renal.

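These data come from cells grown in 96-well plates and exposed to compound for 48 hours at five concentrations. Definition used: TGI = concentration required for complete inhibition of growth.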

Take `Nc1c2c(nc3ccccc13)CCCc1ccccc1-2`: the TGI worked out at 49 µM in assay [1]; 38.9 µM in assay [2]; 4.61 µM in [3]; 19.1 µM in assay [4]; 21.4 µM in assay [5]; 22.5 µM in assay [6]. Moreover, the TGI in assay [7] is 26.3 µM; in assay [8], 31.2 µM; in assay [9], 29.2 µM; in assay [10], 17.2 µM; in assay [11] it was > 100 µM; in assay [12], 34.6 µM. The TGI in assay [13] was 30.8 µM; in assay [14], 30.4 µM; in assay [15], 25.9 µM; in [16], 27.1 µM; in assay [17] it was 52.9 µM; in [18] it was > 100 µM. The compound further registered a TGI in [19] of 26.3 µM.
Regarding `COC(=O)c1ccc(C)cc1CC1Cc2c(C)cccc2C1=O` (stereo not drawn), the TGI was > 60.5 µM in [1]; 73.5 µM in [2]; 25.2 µM in assay [3]; 15.4 µM in assay [4]; 24.2 µM in [5]; 11.1 µM in [6]. Further, the TGI in assay [7] was 80.1 µM; in assay [8], 16.1 µM; in [9], 7.93 µM; in assay [10], 4.82 µM; in assay [11] it was 16.1 µM; in assay [12], > 100 µM. The TGI was > 68.8 µM in assay [13]; 30.3 µM in assay [14]; 22.3 µM in assay [15]; 17.5 µM in assay [16]; 89.7 µM in assay [17]; > 100 µM in assay [18]. This compound also gave a TGI in [19] of 66.4 µM.
Consider `CC(=O)OC1OC(c2ccoc2)C[C@@]12C1CCC3O[C@]3(C)[C@]1(C)C[C@H](OC(C)=O)[C@H]2C` (stereo partly drawn), for which the TGI in assay [1], in [2], in assay [3], in [4], in [5] and in [6] was > 75 µM in each case. Besides, the TGI in [7], in assay [8], in [9], in assay [10], in assay [11] and in [12] was > 75 µM each time. In addition, the TGI in assay [13], in assay [14], in assay [15], in assay [16], in [17] and in [18] was > 75 µM each time. Moreover, in assay [19], the TGI was > 75 µM.
Take `Oc1ccccc1-c1nn2c(CCCCCCCCc3nnc4sc(-c5ccccc5O)nn34)nnc2s1`: the TGI in [1] was > 78 µM; in assay [2], > 88.9 µM; in assay [3], > 100 µM; in assay [4], > 71.2 µM; in assay [5], 77.9 µM; in assay [6] it was > 67.7 µM. In addition, the TGI in [7] is > 100 µM; in [8] it was > 100 µM; in assay [9] it was > 100 µM; in assay [10], > 100 µM; in assay [11] it was 64.3 µM; in assay [12], > 76.6 µM. For the same compound, the TGI in assay [13] was > 100 µM; in assay [14] it was > 100 µM; in [15], > 66.6 µM; in [16] it was > 67.5 µM; in assay [17] it was > 100 µM; in assay [18] it was > 48.7 µM. In assay [19], this compound displayed a TGI of 48.5 µM.
For the compound `CC(C)N(/C(F)=N\C(=O)Nc1ccccc1C(F)(F)F)C(C)C`, the TGI in assay [1] is > 100 µM; in assay [2], > 100 µM; in assay [3], 99 µM; in [4], > 100 µM; in assay [5] it was > 100 µM; in assay [6], > 100 µM. The TGI in assay [7], in assay [8], in [9], in [10], in [11] and in assay [12] was > 100 µM each time. The TGI in [13] is > 100 µM; in [14], > 100 µM; in [15], > 100 µM; in [16] it was 78.5 µM; in assay [17] it was > 100 µM; in assay [18], > 100 µM. The TGI in [19] is > 100 µM.
Consider `COc1ccc(/C=C(/c2ccccc2)c2c(C)cc(C)c(/C(=C\c3ccc(OC)cc3)c3ccccc3)c2N=Nc2cc(C)cc(C)c2)cc1`, for which the TGI is > 100 µM in assay [1]; > 100 µM in [2]; > 25.8 µM in assay [3]; > 87.8 µM in assay [4]; > 42.4 µM in [5]; > 100 µM in assay [6]. Besides, the TGI in [7] is > 100 µM; in assay [8], > 71.9 µM; in assay [9], > 100 µM; in assay [10], > 100 µM; in [11], 30.2 µM; in [12], > 100 µM. In addition, the TGI in assay [13] was > 100 µM; in assay [14], > 100 µM; in assay [15], > 100 µM; in assay [16], 21.8 µM; in [17], > 100 µM; in assay [18], > 100 µM. Moreover, the TGI in assay [19] was > 100 µM.
For `Cc1cc(C)c2c(=O)cc(-c3ccc4ccccc4c3)[nH]c2n1`, the TGI in assay [1] was > 100 µM; in assay [2], > 100 µM; in [3], > 81.8 µM; in assay [4] it was > 69.9 µM; in assay [5], 16.4 µM; in [6], 59.8 µM. The TGI in assay [7] was 99.7 µM; in [8] it was > 52.7 µM; in assay [9], > 100 µM; in assay [10] it was 17.2 µM; in assay [11], > 100 µM; in assay [12] it was > 100 µM. In addition, the TGI was > 100 µM in assay [13]; 27.8 µM in assay [14]; > 93.4 µM in assay [15]; > 100 µM in assay [16]; > 100 µM in assay [17]; 18.6 µM in assay [18]. Moreover, the TGI in assay [19] was > 100 µM.
